Measured values: patent publication US6462193B1, “Hydroxyazepanes as inhibitors of glycosidase and HIV protease” (The Scripps Research Institute, priority 1999, dated 2002)
“Also recorded” adds a separate entry of the source. Where two headings read alike, the source gives them in different places.

Assays:
[1] = biological target: β-N-acetylglucosaminidase; settings: literature value (Wong et al. 1995); read-out: Ki as inhibitor of β-N-acetylglucosaminidase; cited from earlier work
[2] = biological target: T1, α-fucosidase (Bos taurus, UniProt Q2KIM0); settings: literature value (Fleet et al. 1985); read-out: Ki as inhibitor of α-fucosidase; cited from earlier work
T1 sequence (Q2KIM0 23-468): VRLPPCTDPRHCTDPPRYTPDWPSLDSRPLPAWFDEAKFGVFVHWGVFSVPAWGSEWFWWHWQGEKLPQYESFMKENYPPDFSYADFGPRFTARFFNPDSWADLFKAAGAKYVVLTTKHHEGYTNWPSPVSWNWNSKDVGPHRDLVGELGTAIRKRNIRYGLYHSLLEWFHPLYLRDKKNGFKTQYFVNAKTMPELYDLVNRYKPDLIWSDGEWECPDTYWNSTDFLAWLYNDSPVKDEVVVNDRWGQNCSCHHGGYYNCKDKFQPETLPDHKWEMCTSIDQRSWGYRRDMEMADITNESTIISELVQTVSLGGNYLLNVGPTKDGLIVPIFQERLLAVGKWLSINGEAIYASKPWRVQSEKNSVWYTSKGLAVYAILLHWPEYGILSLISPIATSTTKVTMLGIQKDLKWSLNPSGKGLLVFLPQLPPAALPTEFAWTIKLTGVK

[3] = biological target: β-galactosidase; settings: read-out: Ki as inhibitor of β-galactosidase; literature value (Bernotas et al. 1987); cited from earlier work
[4] = biological target: β-N-acetylglucosaminidase; assay: Glycosidase inhibition analysis, β-N-acetylglucosaminidase; type: biochemical; settings: read-out: Ki as inhibitor of β-N-acetylglucosaminidase
Description: (§1) Inhibition analyses were performed at 37° C. in 0.1 M HEPES buffer, pH=6.8, except for α-fucosidase (assayed at 37° C. in 50 mM sodium acetate buffer, pH 6.0). The amount of enzyme added in each assay was 0.05 units (0.1 units for β-galactosidase and α-fucosidase). […] Data were collected and fitted to a Michaelis-Menten curve by using the program HyperCleland for enzyme kinetics analysis (Cleland, W. W. Methods Enzymol. 1979, 63, 103).

[5] = biological target: T2, HIV protease (Human immunodeficiency virus type 1 group M subtype B, UniProt P03369); type: biochemical, HIV-1
T2 construct: a backbone engineered HIV-1 protease was prepared by total synthesis; made in house; host or cells: total chemical synthesis (no expression host)
Description: For determination of IC50 values for HIV protease, a backbone engineered HIV-1 protease was prepared by total synthesis (Schnolzer et al. Science 1992, 256, 221) 450 nM Final concentration of the protease was added to a solution (152 μL final volume) containing tetrahydroxyazepane (inhibitor), 28 μM fluorogenic peptide substrate (Abz-Thr-Ile-Phe-(p-NO2)-Gln-Arg-NH2) (Tith et al. Int. J. Peptide Protein Res. 1990, 36, 544; Slee, et al. J. Am. Chem. Soc. 1995, 117, 11867) and 1.8% dimethyl sulfoxide in assay buffer: 100 mM MES buffer containing 0.5 mg/mL BSA (bovine serum album) at pH 5.5. A Km of 37±8 μM was reported for the synthetic HIV protease against the above fluorogenic substrate. The solution was mixed and incubated over 5 minutes at 37° C. during which time the rate of substrate cleavage was monitored by continuously recording the change in fluorescence of the assay solution. An excitation filter of 325 nm and an emission filter of 420 nm were used. For each inhibitor concentration, three measurements were carried out.

[6] = biological target: β-galactosidase; assay: Glycosidase inhibition analysis, β-galactosidase; type: biochemical; settings: read-out: Ki as inhibitor of β-galactosidase
Description: as §1

[7] = test system: glycosidases; assay: Glycosidase inhibition analysis, panel of glycosidases; type: biochemical
Description: as §1

[8] = biological target: T3, FIV protease (Feline immunodeficiency virus, UniProt P16088); assay: FIV protease inhibition, fluorogenic peptide substrate; type: biochemical
T3 construct: enzymatic activity of recombinantly derived FIV protease; made in house
Description: The inhibitory effects of compounds 60a, 60b, 64a, 64b, 65a, and 65b on the enzymatic activity of recombinantly derived FIV protease (Slee et al. J. Am. Chem. Soc. 1995, 117, 11867) were studied using a fluorogenic assay based on the enzymatic cleavage of a novel peptide based substrate [Arg-Ala-Leu-Thr-Lys(aminobenzyl)-[…]. Inhibition studies were carried out at a single substrate concentration (20 μM) in a 50 mM sodium citrate/100 mM sodium phosphate buffer (pH 5.3) containing 2% DMSO and 1M sodium chloride. The same wavelengths were used for detections. […] IC50 values were determined by least squares analysis of Dixon Plots (Dixon, M. J. Biochem. 1953, 55, 170).

SMILES | inhibition of the HIV protease (in words) [5] | inhibition of the glycosidases (in words) [7] | other results
CC(=O)N1C[C@H](O)[C@@H](O)[C@H](O)[C@H]1CO [1-deoxy-N-acetylglucojirimycin] | – | – | Ki [1]: 9.8 µM
C[C@@H]1NC[C@@H](O)[C@H](O)[C@@H]1O [1-deoxyfucojirimycin] | – | – | Ki [2]: 0.005 µM
OC[C@H]1NC[C@H](O)[C@@H](O)[C@H]1O [1-deoxygalactojirimycin] | – | – | Ki [3]: > 1000 µM
OC1CNCC(O)C(O)C1O [Compound 3, (3R,4R,5R,6R)-tetrahydroxyazepane] | not inhibitors; also recorded: did not show inhibitory activities | – | Ki [4]: 4.6 µM
O[C@H]1[C@H](O)[C@@H](O)CNC[C@@H]1O [Compound 6, (3S,4R,5R,6S)-3,4,5,6-Tetrahydroxyazepane] | not inhibitors; also recorded: did not show inhibitory activities | inhibits all glycosidases | Ki [6]: 6.5 µM
O[C@H]1[C@H](O)[C@H](O)CN(Cc2ccccc2)C[C@H]1O [Compound 7, (3R,4R,5R,6R)-N-Benzyl-3,4,5,6-tetrahydroxyazepane] | not inhibitors | does not improve inhibition activity except in the case of α-fucosidase | –
O[C@H]1[C@H](O)[C@@H](O)CN(Cc2ccccc2)C[C@@H]1O [Compound 8, (3S,4R,5R,6S)-N-Benzyl-3,4,5,6-tetrahydroxyazepane] | not inhibitors | does not improve inhibition activity except in the case of α-fucosidase | –
CO[C@@H]1CN[C@H](CO)[C@@H](O)[C@H]1O [Compound 28, 2-O-methyl-1-deoxy-D-mannojirimycin] | – | None of these two azasugars exhibited significant inhibition | –
CO[C@H]1CN[C@@H](CO)[C@H](O)[C@@H]1O [Compound 29, 2-O-methyl-1-deoxy-L-mannojirimycin] | – | None of these two azasugars exhibited significant inhibition | –
O[C@@H]1[C@@H](O)[C@@H](OCc2cccc(F)c2)CNC[C@@H]1OCc1cccc(F)c1 [Compound 60a, (3S,4R,5R,6S)-3,6-di-O-(3′-fluorobenzyl)-3,4,5,6-tetrahydroxyazepane] | inhibit | not inhibitors | IC50 against FIV protease [8]: inceased compared to their inhibitory activity to the HIV protease; inhibition of FIV protease (in words) [8]: active
O[C@@H]1[C@@H](O)[C@@H](OCc2cc(F)cc(F)c2)CNC[C@@H]1OCc1cc(F)cc(F)c1 [Compound 60b, (3S,4R,5R,6S)-3,6-di-O-(3′,5′-difluorobenzyl)-3,4,5,6-tetrahydroxyazepane] | inhibit | not inhibitors | Ki [5]: ~350 µM; IC50 against FIV protease [8]: inceased compared to their inhibitory activity to the HIV protease; inhibition of FIV protease (in words) [8]: active
CN1C[C@H](OCc2cccc(F)c2)[C@H](O)[C@@H](O)[C@@H](OCc2cccc(F)c2)C1 [Compound 64a, (3S,4R,5R,6S)-3,6-di-O-(3′-Fluorobenzyl)-N-methyl-3,4,5,6-tetrahydroxyazepane] | inhibit | not inhibitors | –
CN1C[C@H](OCc2cc(F)cc(F)c2)[C@H](O)[C@@H](O)[C@@H](OCc2cc(F)cc(F)c2)C1 [Compound 64b, (3S,4R,5R,6S)-3,6-di-O-(3′,5′-difluorobenzyl)-N-methyl-3,4,5,6-tetrahydroxyazepane] | inhibit | not inhibitors | –
C[N+]1([O-])C[C@H](OCc2cccc(F)c2)[C@H](O)[C@@H](O)[C@@H](OCc2cccc(F)c2)C1 (stereo partly drawn) [Compound 65a, (3S,4R,5R,6S)-3,6-di-O-(3′-Fluorobenzyl)-N-methyl-3,4,5,6-tetrahydroxyazepane N-oxide] | inhibit | not inhibitors | –
C[N+]1([O-])C[C@H](OCc2cc(F)cc(F)c2)[C@H](O)[C@@H](O)[C@@H](OCc2cc(F)cc(F)c2)C1 (stereo partly drawn) [Compound 65b, (3S,4R,5R,6S)-3,6-di-O-(3′,5′-difluorobenzyl)-N-methyl-3,4,5,6-tetrahydroxyazepane N-oxide] | inhibit | not inhibitors | –
